The values that follow come from patent US8981111B2 (priority 2008, dated 2015).

The data set can be described thus: log P (HPLC/MS data of the preparation examples). The note with it: for log p: LC-MS, method [b]: pH 2.7 with 0.1% formic acid in water and acetonitrile, linear gradient 10% to 95% acetonitrile; for chromatographic logP: reversed phase HPLC column, pH 2.7.

For `CC(C)CCOC(=O)Nc1cccc(CON=C(c2ccccc2)c2ncnn2C)n1` [Example 317], the log p is 3.9^[b]. Consider `CCCCCC(=O)Nc1cccc(CON=C(c2ccccc2)c2ocnc2C)n1` [Example 320, N-{6-[({[(4-methyl-1,3-oxazol-5-yl)(phenyl)methylene]amino}oxy)methyl]pyridin-2-yl}hexanamide], for which the chromatographic logP was 3.94.

`CCCCCOC(=O)Nc1nc(CON=C(c2ccccc2)c2ocnc2C)cs1` [Example 321, pentyl{4-[({[(4-methyl-1,3-oxazol-5-yl)(phenyl)methylene]amino}oxy)methyl]-1,3-thiazol-2-yl}carbamate]: the chromatographic logP was found to be 4.09. Consider `CCC(C)COC(=O)Nc1cccc(CON=C(c2ccccc2)c2nccn2C)n1` (stereo not drawn) [Example 324], for which the log p was 2.52^[b]. `CC(C)COC(=O)Nc1cccc(CON=C(c2ccccc2)c2nccn2C)n1` [Example 325]: the log p is 2.21^[b].

Turning to `CC(C)CCOC(=O)Nc1cccc(CON=C(c2ccccc2)c2nccn2C)n1` [Example 326], the log p is 2.51^[b]. On the same count and under the same terms, then `Cn1ccnc1C(=NOCc1cccc(NC(=O)OCC(Cl)(Cl)Cl)n1)c1ccccc1` [Example 327], with 2.45^[b]; and `C=CCCOC(=O)Nc1cccc(CON=C(c2ccccc2)c2nccn2C)n1` [Example 328], with 2.02^[b]; and `CC(C)CCC(=O)Nc1cccc(CON=C(c2ccccc2)c2nccn2C)n1` [Example 329], with 2.15^[b]. Same read-out and setting: then `C#CCOC(=O)Nc1cccc(CON=C(c2ccccc2)c2nccn2C)n1` [Example 330], with 1.66^[b].

Regarding `Cn1ccnc1C(=NOCc1cccc(NC(=O)CCc2ccc(Cl)s2)n1)c1ccccc1` [Example 331], the log p is 2.49^[b]. Same read-out and setting: then `C#CCCOC(=O)Nc1cccc(CON=C(c2ccccc2)c2nccn2C)n1` [Example 332], with 1.78^[b]; and `CC(C(=O)Nc1cccc(CON=C(c2ccccc2)c2nccn2C)n1)c1ccccc1` (stereo not drawn) [Example 333], with 2.21^[b]. With `CCCCSC(=O)Nc1cccc(CON=C(c2ccccc2)c2nccn2C)n1` [Example 334], the log p was 2.58^[b]. `Cn1ccnc1C(=NOCc1cccc(NC(=O)CCc2ccc(Cl)s2)n1)c1cccc(F)c1` [Example 335]: the log p is 2.77^[b].

For `C#CCCOC(=O)Nc1cccc(CON=C(c2cccc(F)c2)c2nccn2C)n1` [Example 336], the log p was 1.98^[b]. For `COC(C(=O)Nc1cccc(CON=C(c2ccccc2)c2nccn2C)n1)c1ccccc1` (stereo not drawn) [Example 337], the log p is 2.15^[b]. Regarding `Cn1ccnc1C(=NOCc1cccc(NC(=O)C2CCCCO2)n1)c1ccccc1` (stereo not drawn) [Example 338], the log p is 1.93^[b]. Still for that read-out and setting: then `COCCOC(=O)Nc1cccc(CON=C(c2ccccc2)c2nccn2C)n1` [Example 339], with 1.34^[b]. On the same count and under the same terms, then `Cn1ccnc1C(=NOCc1cccc(NC(=O)C2CCCCO2)n1)c1cccc(F)c1` (stereo not drawn) [Example 340], with 2.17^[b]; and `COCCOC(=O)Nc1cccc(CON=C(c2cccc(F)c2)c2nccn2C)n1` [Example 341], with 1.66^[b]; and `CCCCSC(=O)Nc1cccc(CON=C(c2cccc(F)c2)c2nccn2C)n1` [Example 342], with 2.88^[b]. Still for that read-out and setting: with `Cn1ccnc1C(=NOCc1cccc(NC(=O)OCCF)n1)c1cccc(F)c1` [Example 343] the figure was 1.75^[b]; with `CCC(C)COC(=O)Nc1cccc(CON=C(c2cccc(F)c2)c2nccn2C)n1` (stereo not drawn) [Example 344], 2.82^[b]; with `CC(C)COC(=O)Nc1cccc(CON=C(c2cccc(F)c2)c2nccn2C)n1` [Example 345], 2.51^[b].

Turning to `CC(C)CCOC(=O)Nc1cccc(CON=C(c2cccc(F)c2)c2nccn2C)n1` [Example 346], the log p is 2.82^[b].

Turning to `Cn1ccnc1C(=NOCc1cccc(NC(=O)OCC(Cl)(Cl)Cl)n1)c1cccc(F)c1` [Example 347], the log p was 2.73^[b].

As a reminder, the chromatographic logP is a lipophilicity value derived from retention on a column. A higher chromatographic logP goes with higher lipophilicity.
